Reference: article PMC12323867 (RSC Medicinal Chemistry, 2025)

Tests used:
[1] = biological target: T1, LSD1 in HCT116 cells (Homo sapiens, UniProt O60341); experiment: LSD1 degradation (LSD1 abundance) by western blot; type: cell-based; details: HCT116, 0.1–10 μM, 24 hours, LSD1 antibody
T1 construct: host or cells: HCT116
Description: Using the same conditions, we also determined the effects of SP2509, 25, 27, 28, 30 and 31 on histone H3 lysine 4 dimethyl (H3K4me2) a validated substrate for LSD1 using a specific antibody for H3K4me2 (Fig. S4 ^†).
(§1) Compounds were tested at concentration ranges of 0.2–20 μM and LSD1 abundance was quantified at 24 hours (Fig. S5 ^†). 49, 52 and 54 were also evaluated at 48 and 72 hours. […] We also determined the effects of these compounds on the histone methyl marker H3K4me2 (Fig. S5 and S6 ^†).
2.5 Protocols for LSD1 degradation and histone methylation in HCT116 cells HCT116 human colon carcinoma cells were grown in Dulbecco’s Modified Eagle Medium (DMEM) supplemented with Fetal Bovine Serum (FBS, 10% final concentration) and 1x glutamine/penicillin/streptomycin. Cells were incubated at 37 °C and 5% CO2. Cells were treated […]
untreated (WT) cells were included as controls.
(§2) HCT116 cells were seeded into six well plates (400000 cells per well) and after requisite compound treatment time (24h, 48h, 72h) cells were harvested and either snap-frozen in liquid nitrogen or lysed in lysis buffer (50mM Tris-HCl, 150 mM NaCl, 0.5% NP-40, 0.5% Triton X-100 + protease inhibitor) on ice for 30 mins. This was centrifuged (15000 rpm, 4 °C, 15 mins) and the supernatant collected.
H2SO4 (0.4 M, equal volume) was added to the pellets for histone extraction and the tubes incubated overnight at 4 °C. Following this, the histone extract was centrifuged (15000 rpm, 4 °C, 15 mins) and the supernatant collected. Protein concentrations of whole cell extract were quantified via Bradford Assay using BIO-RAD Protein Assay Dye Reagent Concentrate. […]
(§3) or an equivalent volume of histone extract loaded per lane, with all extracts dyed with 4x NuPAGE LDS Sample Buffer. PageRuler Plus Prestained Ladder was used as a reference. Gel electrophoresis was carried out at 140 V for 60-90 mins, following which the proteins were transferred onto nitrocellulose membrane at 30 V for 60 mins. Membranes were blocked in LI-COR Intercept Blocking Buffer overnight at RT on a roller, following which the membrane was probed with primary antibodies for 1 h at RT. The membrane was washed with PBS + 0.1% Tween (3 x 10 mins), then incubated with secondary antibodies for 50 mins at RT. The membrane was washed again (PBS Tween 2 x 10 mins, PBS 1 x 10 mins) following which the blot was visualised with the Odyssey Infrared Imaging System. Image processing and quantification was performed with ImageStudio Lite. […]
(§4) a-tubulin (mouse) – Sigma, t5168 (1:10000 dilution)

[2] = tested on: H3K4me2 in HCT116 cells; experiment: Histone methylation H3K4me2 by western blot; type: cell-based, human; details: HCT116, 0.1–10 μM, 24 hours, H3K4me2 antibody
Description: We next screened 25–33 and SP2509 over a concentration range of 0.1–10 μM in HCT116 cells (obtained from ATCC, CCL-247) and determined LSD1 abundance after 24 hours with an antibody for LSD1 (Fig. S4 ^†). […] Using the same conditions, we also determined the effects of SP2509, 25, 27, 28, 30 and 31 on histone H3 lysine 4 dimethyl (H3K4me2) a validated substrate for LSD1 using a specific antibody for H3K4me2 (Fig. S4 ^†).
as §1, with “Compounds 39–41, 49, 52 and 54 were screened for LSD1 degradation in HCT116 cells using a specific antibody for LSD1. This was performed side-by-side with TCP. Compounds” for “Compounds”
2.5 Protocols for LSD1 degradation and histone methylation in HCT116 cells HCT116 human colon carcinoma cells were grown in Dulbecco’s Modified Eagle Medium (DMEM) supplemented with Fetal Bovine Serum (FBS, 10% final concentration) and 1x glutamine/penicillin/streptomycin. Cells were incubated at 37 °C and 5% CO2. Cells were treated with compounds (0.1-20 µM) with a final DMSO volume of 0.04%. DMSO (0.04%) treated and untreated (WT) cells were included as controls.
as §2
H2SO4 (0.4 M, equal volume) was added to the pellets for histone extraction and the tubes incubated overnight at 4 °C. Following this, the histone extract was centrifuged (15000 rpm, 4 °C, 15 mins) and the supernatant collected. Protein concentrations of whole cell extract were quantified via Bradford Assay using BIO-RAD Protein Assay Dye Reagent Concentrate.
as §3, with “Western blots were run on NuPAGE 4-12% Bis-Tris gels, with 30 µg of protein (whole cell extract) or an” for “or an”
as §4

## C/C(=N\NC(=O)c1cccc(S(=O)(=O)N2CCOCC2)c1)c1cc(Cl)ccc1O [SP2509, reference compound]
[1]
  LSD1 abundance (degradation): no degradation or change in LSD1 levels
[2]
  H3K4me2 abundance: no increase in H3K4me2
